Test results taken from patent publication US7501418B2, “Fused heterocyclic isoxazoline derivatives and their use as anti-depressants” (Janssen Pharmaceutica, N.V., priority 2002, dated 2009).
Where a name gives a salt, the structure may show the parent alone. Read-outs that look alike come from different tables or passages of the source.

Columns and labels:
h5-HT transporter = molecular target: T1, h5-HT transporter (Homo sapiens, UniProt P31645); assay: Radioligand binding experiment for 5-HT transporter ([3H]paroxetine); details: human platelet membranes, [3H]paroxetine 0.5 nM
T1 construct: Human platelet membranes (Oceanix Biosciences Corporation, Hanover, Md., USA) were thawed; tissue Oceanix Biosciences Corporation, Hanover, Md., USA; host or cells: human platelet membranes
Protocol: In general, a low concentration of a radioligand with a high binding affinity for a particular receptor or transporter is incubated with a sample of a tissue preparation enriched in a particular receptor or transporter or with a preparation of cells expressing cloned human receptors in a buffered medium. During the incubation, the radioligand binds to the receptor or transporter. When equilibrium of binding is reached, the receptor bound radioactivity is separated from the non-bound radioactivity, and the receptor- or transporter-bound activity is counted. The interaction of the test compounds with the receptor is assessed in competition binding experiments. Various concentrations of the test compound are added to the incubation mixture containing the receptor- or transporter preparation and the radioligand. The test compound in proportion to its binding affinity and its concentration inhibits binding of the radioligand. The radioligand used for hα2A, hα2B and hα2C receptor binding was [^3H]-raulwolscine and for the h5-HT transporter was [^3H]paroxetine. Human platelet membranes (Oceanix Biosciences Corporation, Hanover, Md., USA) were thawed, diluted in buffer (Tris-HCl 50 mM, 120 mM NaCl and 5 mM KCl) and quickly (max 3 s) homogenised with an Ultraturrax homogenizer. In a total volume of 250 μL, 50-100 μg protein was incubated with [^3H]paroxetine (NET-869) (New England Nuclear, USA) (0.5 nM final concentration) with or without competitor for 60 min at 25 ° C. Incubation was stopped by rapid filtration of the incubation mixture over GF/B filters, pre-wetted with 0.1% polyethyleneamine, using a Filtermate196 harvester (Packard, Meriden, Conn.). Filters were rinsed extensively with ice-cold buffer and radioactivity on the filters was counted in a Topcount liquid scintillation counter (Packard, Meriden, Conn.). Data were expressed as cpm. Imipramine (at 1 μM final concentration) was used to determine the non-specific binding. Data from assays in the presence of compound were calculated as a percentage of total binding measured in the absence of test compound. Inhibition curves, plotting percent of total binding versus the log value of the concentration of the test compound, were automatically generated, and sigmoidal inhibition curves were fitted using non-linear regression. The pIC50 values of test compounds were derived from individual curves.

hα2C receptor = molecular target: T2, hα2C receptor (Homo sapiens, UniProt P18825); assay: Radioligand binding experiment for α2C-adrenergic receptor ([3H]-raulwolscine)
T2 construct: expressed in transfected cells
T2 sequence (P18825 1-462): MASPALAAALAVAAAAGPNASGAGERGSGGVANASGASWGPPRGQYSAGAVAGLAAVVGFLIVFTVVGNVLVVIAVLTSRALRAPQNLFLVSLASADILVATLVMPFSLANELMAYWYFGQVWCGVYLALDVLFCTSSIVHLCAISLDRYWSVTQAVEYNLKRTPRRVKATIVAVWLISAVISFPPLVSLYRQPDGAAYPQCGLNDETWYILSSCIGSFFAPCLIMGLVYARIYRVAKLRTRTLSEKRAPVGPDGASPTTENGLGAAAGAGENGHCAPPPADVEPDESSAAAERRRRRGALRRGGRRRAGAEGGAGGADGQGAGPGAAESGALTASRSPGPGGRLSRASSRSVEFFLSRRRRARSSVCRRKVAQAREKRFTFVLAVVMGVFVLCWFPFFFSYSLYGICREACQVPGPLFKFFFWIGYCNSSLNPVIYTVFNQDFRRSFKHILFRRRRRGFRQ
Protocol: (§1) In general, a low concentration of a radioligand with a high binding affinity for a particular receptor or transporter is incubated with a sample of a tissue preparation enriched in a particular receptor or transporter or with a preparation of cells expressing cloned human receptors in a buffered medium. During the incubation, the radioligand binds to the receptor or transporter. When equilibrium of binding is reached, the receptor bound radioactivity is separated from the non-bound radioactivity, and the receptor- or transporter-bound activity is counted. The interaction of the test compounds with the receptor is assessed in competition binding experiments. Various concentrations of the test compound are added to the incubation mixture containing the receptor- or transporter preparation and the radioligand. The test compound in proportion to its binding affinity and its concentration inhibits binding of the radioligand. The radioligand used for hα2A, hα2B and hα2C receptor binding was [^3H]-raulwolscine and for the h5-HT transporter was [^3H]paroxetine. CHO cells, stabile transfected with human adrenergic-α2A-, -α2B or α2C receptor cDNA, were cultured in Dulbecco's Modified Eagle's Medium (DMEM)/Nutrient mixture Ham's F12 (ratio 1:1)(Gibco, Gent-Belgium) supplemented with 10% heat inactivated fetal calf serum (Life Technologies, Merelbeke-Belgium) and antibiotics (100 IU/ml penicillin G, 100 μg/ml streptomycin sulphate, 110 μg/ml pyruvic acid and 100 μg/ml L-glutamine). One day before collection, cells were induced with 5 mM sodiumbutyrate. Upon 80-90% of confluence, cells were scraped in phosphate buffered saline without Ca^2+ and Mg^2+ and collected by centrifugation at 1500×g for 10 min. The cells were homogenised in Tris-HCl 50 mM using an Ultraturrax homogenizer and centrifuged for 10 min at 23,500×g. The pellet was washed once by resuspension and rehomogenization and the final pellet was resuspended in Tris-HCl, divided in 1 ml aliquots and stored at −70° C. Membranes were thawed and re-homogenized in incubation buffer (glycylglycine 25 mM, pH 8.0). In a total volume of 500 μl, 2-10 μg protein was incubated with [^3H]raulwolscine (NET-722) (New England Nuclear, USA) (1 nM final concentration) with or without competitor for 60 min at 25° C. followed by rapid filtration over GF/B filter using a Filtermate196 harvester (Packard, Meriden, Conn.). Filters were rinsed extensively with ice-cold rinsing buffer (Tris-HCl 50 mM pH 7.4). Filter-bound radioactivity was determined by scintillation counting in a Topcount (Packard, Meriden, Conn.) and results were expressed as counts per minute (cpm). Non-specific binding was determined in the presence of 1 μM oxymetazoline for hα2A- and hα2B receptors and 1 μM spiroxatrine for hα2C receptors. Data from assays in the presence of compound were calculated as a percentage of total binding measured in the absence of test compound. Inhibition curves, plotting percent of total binding versus the log value of the concentration of the test compound, were automatically generated, and sigmoidal inhibition curves were fitted using non-linear regression. The pIC50 values of test compounds were derived from individual curves.

hα2A receptor = molecular target: T3, hα2A receptor (Homo sapiens, UniProt P08913); assay: Radioligand binding experiment for α2A-adrenergic receptor ([3H]-raulwolscine); details: CHO cell membranes with human α2A receptor, [3H]raulwolscine 1 nM
T3 construct: expressed in transfected cells
T3 sequence (P08913 1-465): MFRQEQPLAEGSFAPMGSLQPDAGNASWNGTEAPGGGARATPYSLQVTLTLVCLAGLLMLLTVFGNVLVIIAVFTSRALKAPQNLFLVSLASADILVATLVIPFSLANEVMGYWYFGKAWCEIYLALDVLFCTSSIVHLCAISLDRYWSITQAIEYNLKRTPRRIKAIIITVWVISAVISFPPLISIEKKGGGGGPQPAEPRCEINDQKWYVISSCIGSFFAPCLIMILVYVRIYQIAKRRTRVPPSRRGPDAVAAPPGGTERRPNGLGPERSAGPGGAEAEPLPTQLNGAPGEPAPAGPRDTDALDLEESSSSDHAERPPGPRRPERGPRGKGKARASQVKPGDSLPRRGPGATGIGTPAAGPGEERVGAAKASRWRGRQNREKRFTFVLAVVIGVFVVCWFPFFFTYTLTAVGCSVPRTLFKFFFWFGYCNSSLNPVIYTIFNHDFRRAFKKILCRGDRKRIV
Protocol: as §1

hα2B receptor = molecular target: T4, hα2B receptor (Homo sapiens, UniProt P18089); assay: Radioligand binding experiment for α2B-adrenergic receptor ([3H]-raulwolscine); details: hα2B (pIC50), CHO cell membranes with human α2B receptor, [3H]raulwolscine 1 nM
T4 construct: expressed in transfected cells
T4 sequence (P18089 1-450): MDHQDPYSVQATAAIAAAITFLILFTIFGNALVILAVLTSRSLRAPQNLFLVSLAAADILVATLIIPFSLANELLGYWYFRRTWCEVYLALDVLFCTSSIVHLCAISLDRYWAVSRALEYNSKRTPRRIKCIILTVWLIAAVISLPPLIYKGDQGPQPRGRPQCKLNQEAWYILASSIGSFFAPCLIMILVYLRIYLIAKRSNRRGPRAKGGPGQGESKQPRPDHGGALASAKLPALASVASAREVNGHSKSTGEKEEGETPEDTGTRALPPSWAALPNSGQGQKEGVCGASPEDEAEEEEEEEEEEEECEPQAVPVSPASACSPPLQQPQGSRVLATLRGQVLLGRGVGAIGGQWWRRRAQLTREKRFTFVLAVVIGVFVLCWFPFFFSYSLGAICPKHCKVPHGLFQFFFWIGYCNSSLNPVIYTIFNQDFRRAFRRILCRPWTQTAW
Protocol: as §1

[1] = CHO cell membranes with human α2C receptor, [3H]raulwolscine 1 nM
[2] = read-out: 5-HTT (pIC50) (converted)
[3] = CHO cell membranes with human α2C receptor, [3H]raulwolscine 1 nM, read-out: hα2C (pIC50) (converted)
[4] = read-out: hα2A (pIC50) (converted)

T1 sequence (P31645 whole entry): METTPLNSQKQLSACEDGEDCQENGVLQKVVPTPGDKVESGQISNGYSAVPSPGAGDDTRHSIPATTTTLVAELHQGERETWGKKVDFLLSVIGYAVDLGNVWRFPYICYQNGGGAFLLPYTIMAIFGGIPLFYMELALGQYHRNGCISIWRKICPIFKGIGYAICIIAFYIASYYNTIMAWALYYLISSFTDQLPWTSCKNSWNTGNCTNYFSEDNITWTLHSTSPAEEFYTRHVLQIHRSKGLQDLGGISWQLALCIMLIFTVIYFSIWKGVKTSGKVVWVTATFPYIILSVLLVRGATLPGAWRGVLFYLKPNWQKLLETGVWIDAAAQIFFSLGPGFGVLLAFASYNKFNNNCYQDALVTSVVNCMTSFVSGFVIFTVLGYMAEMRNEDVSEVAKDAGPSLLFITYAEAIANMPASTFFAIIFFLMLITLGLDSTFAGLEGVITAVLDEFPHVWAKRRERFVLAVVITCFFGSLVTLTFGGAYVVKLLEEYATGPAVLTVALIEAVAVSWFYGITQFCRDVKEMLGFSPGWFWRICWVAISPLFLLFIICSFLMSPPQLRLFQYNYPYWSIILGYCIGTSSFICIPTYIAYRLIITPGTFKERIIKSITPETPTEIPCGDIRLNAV

Work on `C/C(=C\c1ccccc1)CN1CCN(CC2ON=C3c4cc5ccn(CCO)c5cc4OCC32)CC1` (stereo not shown) [Compound 8] yielded an IC50 (h5-HT transporter; 5-HTT (pIC50)) of 3.98 nM, an IC50 (hα2C receptor; hα2C (pIC50), CHO cell membranes with human α2C receptor, [3H]raulwolscine 1 nM) of 2 nM and an IC50 (hα2A receptor; hα2A (pIC50)) of 15.8 nM. The IC50 (hα2B receptor) was 5.01 nM.

With `C/C(=C\c1ccc(F)cc1)CN1CCN(CC2ON=C3c4ccncc4OCC32)CC1.O=C(O)C(=O)O` (racemic) [Compound 21] the “5-HTT (pIC50)” value (h5-HT transporter) was 7.1, the “hα2C (pIC50)” value (hα2C receptor; [1]) was 7.8 and the “hα2A (pIC50)” value (hα2A receptor) was 8.2.

`C/C(=C\c1ccccc1)CN1CCN(CC2ON=C3c4cc5ccn(C(=O)C6CC6)c5cc4OCC32)CC1` (racemic) [Compound 12] was tested, and the “5-HTT (pIC50)” value (h5-HT transporter) was 7.7, the “hα2C (pIC50)” value (hα2C receptor; [1]) was 8.5 and the “hα2A (pIC50)” value (hα2A receptor) was 8.2.

Compound `C/C(=C\c1ccccc1)CN1CCN(CC2ON=C3c4cc5ccn(C)c5cc4OCC32)CC1` (stereo not shown) [Compound 7, 7-methyl-3-[4-(2-methyl-3-phenyl-allyl)-piperazin-1-ylmethyl]-3a,4-dihydro-3H,7H-2,5-dioxa-1,7-diaza-dicyclopenta[a,g]naphthlene] has an IC50 (h5-HT transporter; 5-HTT (pIC50)) of 5.01 nM, an IC50 (hα2C receptor) of 0.794 nM and an IC50 (hα2A receptor; hα2A (pIC50)) of 3.16 nM.

For `COCC(=O)n1ccc2cc3c(cc21)OCC1C3=NOC1CN1CCN(C/C(C)=C/c2ccccc2)CC1` (racemic) [Compound 14], the “5-HTT (pIC50)” value (h5-HT transporter) was 8.4, the “hα2C (pIC50)” value (hα2C receptor; [1]) was 8.9 and the “hα2A (pIC50)” value (hα2A receptor) was 8.5.

With `c1ccc2cc(CN3CCN(CC4ON=C5c6ccncc6OCC54)CC3)ccc2c1` (stereo not shown) [Compound 19, 3-(4-naphthalen-2-ylmethyl-piperazin-1-ylmethyl)-3a,4-dihydro-3H-2,5-dioxa-1,7-diaza-cyclopenta[a]naphthalene oxalate salt (1/1)] the IC50 (h5-HT transporter; [2]) was 100 nM, the IC50 (hα2C receptor; [3]) was 39.8 nM and the IC50 (hα2A receptor; [4]) was 10 nM.

`CC(=CCN1CCN(CC2ON=C3c4cc5cc[nH]c5cc4OCC32)CC1)c1ccccc1` (racemic) [Compound 6] was tested, and the “5-HTT (pIC50)” value (h5-HT transporter) was 8.3, the “hα2C (pIC50)” value (hα2C receptor; [1]) was 8.6 and the “hα2A (pIC50)” value (hα2A receptor) was 8.1.

In the case of `C/C(=C\c1ccccc1)CN1CCN(CC2ON=C3c4cccnc4OCC32)CC1` (stereo not shown) [Compound 22, 3-[4-(2-methyl-3-phenyl-allyl)-piperazin-1-ylmethyl]-3a,4-dihydro-3H-2,5-dioxa-1,6-diaza-cyclopenta[a]naphthalene oxalate salt], the IC50 (h5-HT transporter; [2]) is reported as 6310 nM, the IC50 (hα2C receptor; [3]) is reported as 79.4 nM and the IC50 (hα2A receptor; [4]) is reported as 631 nM.

`Clc1ccc(CN2CCN(CC3ON=C4c5cc6cc[nH]c6cc5OCC43)CC2)cc1` (racemic) [Compound 5] was tested, and the “5-HTT (pIC50)” value (h5-HT transporter) was 7.8, the “hα2C (pIC50)” value (hα2C receptor; [1]) was 7.4 and the “hα2A (pIC50)” value (hα2A receptor) was 6.7.

In the case of `C/C(=C\c1cccc(F)c1)CN1CCN(CC2ON=C3c4ccncc4OCC32)CC1` (racemic) [Compound 20], the “5-HTT (pIC50)” value (h5-HT transporter) is reported as 7.6, the “hα2C (pIC50)” value (hα2C receptor; [1]) is reported as 8.8 and the “hα2A (pIC50)” value (hα2A receptor) is reported as 9.2.

`CC(=O)n1ccc2cc3c(cc21)OCC1C3=NOC1CN1CCN(C/C(C)=C/c2ccccc2)CC1` (stereo not shown) [Compound 11, 1-{3-[4-(2-methyl-3-phenyl-allyl)-piperazin-1-ylmethyl]-3a,4-dihydro-3H-2,5-dioxa-1,7-diaza-dicyclopenta[a,g]naphthalen7-yl}-ethanone] gave an IC50 (h5-HT transporter; 5-HTT (pIC50)) of 6.31 nM, an IC50 (hα2C receptor) of 1 nM and an IC50 (hα2A receptor; hα2A (pIC50)) of 2.51 nM.

`COC(=O)n1ccc2cc3c(cc21)OCC1C3=NOC1CN1CCN(C/C(C)=C/c2ccccc2)CC1` (racemic) [Compound 13] was tested, and the “5-HTT (pIC50)” value (h5-HT transporter) was 7.9, the “hα2C (pIC50)” value (hα2C receptor; [1]) was 8.4 and the “hα2A (pIC50)” value (hα2A receptor) was 8.4.
